{
  "source": "patent US12583868B2",
  "about": "“JAK inhibitors and methods for synthesizing and using thereof” (GALDERMA HOLDING SA, priority 2020, dated 2026)",
  "key": {"JAK3": {"molecular_target": "T1, JAK3 (Homo sapiens, UniProt P52333)", "T1 construct": "purchased Life Technologies PV3855", "T1 sequence (P52333 1-1124)": "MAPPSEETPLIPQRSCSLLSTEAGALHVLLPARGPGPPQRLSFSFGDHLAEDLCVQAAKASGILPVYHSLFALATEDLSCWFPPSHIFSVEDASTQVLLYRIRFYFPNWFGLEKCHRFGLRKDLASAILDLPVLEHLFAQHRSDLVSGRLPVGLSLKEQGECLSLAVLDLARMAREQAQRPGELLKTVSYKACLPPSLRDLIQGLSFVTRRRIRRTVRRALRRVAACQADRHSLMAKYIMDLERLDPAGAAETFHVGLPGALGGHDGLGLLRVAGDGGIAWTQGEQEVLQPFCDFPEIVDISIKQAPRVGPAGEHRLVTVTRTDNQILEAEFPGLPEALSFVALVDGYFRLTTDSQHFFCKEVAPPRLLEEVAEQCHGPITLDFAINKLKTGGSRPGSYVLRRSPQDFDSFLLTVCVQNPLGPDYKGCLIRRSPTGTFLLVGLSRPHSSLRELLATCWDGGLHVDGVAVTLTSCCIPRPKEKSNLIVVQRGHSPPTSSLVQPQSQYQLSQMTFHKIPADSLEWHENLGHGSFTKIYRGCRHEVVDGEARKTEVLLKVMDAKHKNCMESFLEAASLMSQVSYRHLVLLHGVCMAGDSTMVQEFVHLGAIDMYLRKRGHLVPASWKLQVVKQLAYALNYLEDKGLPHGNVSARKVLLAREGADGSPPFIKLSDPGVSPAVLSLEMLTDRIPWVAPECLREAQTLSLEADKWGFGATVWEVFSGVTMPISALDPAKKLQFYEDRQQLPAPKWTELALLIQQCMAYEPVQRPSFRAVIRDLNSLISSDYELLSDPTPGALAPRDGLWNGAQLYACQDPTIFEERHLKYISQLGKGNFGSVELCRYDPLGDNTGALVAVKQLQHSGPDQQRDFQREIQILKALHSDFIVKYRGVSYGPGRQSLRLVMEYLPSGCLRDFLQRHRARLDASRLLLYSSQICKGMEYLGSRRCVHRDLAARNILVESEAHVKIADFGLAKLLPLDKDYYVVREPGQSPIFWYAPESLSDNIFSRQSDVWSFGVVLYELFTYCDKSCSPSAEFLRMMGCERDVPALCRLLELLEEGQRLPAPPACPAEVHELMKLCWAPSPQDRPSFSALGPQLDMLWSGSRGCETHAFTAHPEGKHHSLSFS", "test": "In vitro enzyme assay (Cisbio kinase assay), JAK3", "format": "biochemical", "conditions": "ATP 300 μM; read-out: Enzymatic assay: JAK3"}, "[1]": {"system": "IL-6 induced pSTAT3 in TF-1 cells", "test": "In vitro cellular pSTAT3 assay, IL-6 stimulated TF-1 cells", "format": "cell-based", "conditions": "Homo sapiens", "procedure": ". The flasks were incubated overnight at 37° C., 5% CO2 then seeded in 96 well plates (TPP) at 150000 cells/well in 25 μL. Cells were treated with 5 IL/well of serially diluted compounds in DMSO (final DMSO concentration of 0.1%) and incubated for 30 min at 37° C. IL-6 (6 IL/well, 100 ng/ml as a final concentration in Opti-MEM, Thermofisher, PHC0066) was added to the cell plates and followed by a 30-min incubation at 37° C. Next, cells were lysed by adding 12 μl/well of 4× supplemented lysis buffer, incubated at 4° C. for 30 min under agitation. The samples were processed for the pSTAT3 detection as described by the manufacturer (MSD) with 25 μl of non-diluted cell lysates tested. Compounds were tested in simplicates over 10 three-step dilutions in order to determine their IC50 values."}, "[2]": {"test": "Protein binding analysis (RED), minipig plasma", "format": "in vitro ADME", "conditions": "male, Göttingen, pH 7.4, read-out: minipig FU", "procedure": "The protein binding was assessed in plasma of Human, male balb-c mice, male Wistar Han rat, male Göttingen minipig by rapid equilibrium dialysis (RED) devices. After the plasma and buffer phosphate 50 mM pH7.4 were equilibrated at 37° C., the compound was added to plasma to reach a final concentration of 5 μM. An aliquot of plasma was withdrawn immediately. Equilibration under mild agitation was continued for 4 h. The plasma and buffer were sampled and samples were quenched with 4 volumes of acetonitrile and centrifuged. Supernatant was quantified in HPLC/MS/MS to calculate the recovery and the percentage of compound dissolved in the buffer (unbound) and bound to plasma proteins."}, "[3]": {"test": "Intrinsic clearance in hepatocytes, minipig", "format": "in vitro ADME, male Göttingen minipig", "conditions": "2.5 μM", "procedure": "The intrinsic clearance was assessed in cryopreserved Hepatocytes obtained by Human livers donors of mix gender pooled together, male balb-c mouse, male Wistar Han rats and male Göttingen minipig, by looking at the parent compound disappearance. The incubations were performed using a final concentration of viable cells of 1 million/ml (viability above 70%) and test item of 2.5 μM. Incubations were followed up to 2 h. Aliquotes were withdrawn at different time points and reaction quenched with acetonitrile. After centrifugation the supernatant was analyzed by HPLC/MS to quantify the remaining amount of parent in comparison with time 0. The clearance was calculated by fitting the log of the percentage remaining with Graphpad Prism ver.7."}, "CYP2D6": {"molecular_target": "T2, CYP2D6 (Homo sapiens, UniProt P10635)", "T2 construct": "Human pooled liver microsomes of mixed gender (mainly Caucasian); from tissue; host or cells: pooled human liver microsomes", "T2 sequence (P10635 whole entry)": "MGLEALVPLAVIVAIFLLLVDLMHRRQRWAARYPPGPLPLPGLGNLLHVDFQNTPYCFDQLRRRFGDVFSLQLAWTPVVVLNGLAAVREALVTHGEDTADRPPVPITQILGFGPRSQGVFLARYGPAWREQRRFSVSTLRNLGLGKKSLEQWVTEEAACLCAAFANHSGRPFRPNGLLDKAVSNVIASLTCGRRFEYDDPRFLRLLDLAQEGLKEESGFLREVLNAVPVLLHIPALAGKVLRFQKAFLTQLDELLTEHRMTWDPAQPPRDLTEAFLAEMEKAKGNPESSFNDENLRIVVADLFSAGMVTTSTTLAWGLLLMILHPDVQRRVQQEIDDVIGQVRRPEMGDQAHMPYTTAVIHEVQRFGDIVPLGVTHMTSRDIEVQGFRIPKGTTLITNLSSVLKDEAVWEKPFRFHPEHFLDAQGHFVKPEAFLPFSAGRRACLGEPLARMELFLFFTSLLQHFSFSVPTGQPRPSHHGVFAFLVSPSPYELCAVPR", "test": "CYP2D6 inhibition in human liver microsomes", "format": "in vitro ADME", "conditions": "dextromethorphan, CRL data", "procedure": "After 5 min at 37° C. incubations were started with NADPH and prolonged for 10 min. The test compound was tested up to 30 μM keeping the final concentration of organic solvent was below 0.5%. The final concentration of microsomes was 0.1 mg/ml to ensure linearity during the time of the incubation. The reaction was quenched by adding 3 volume of acetonitrile. After centrifugation the supernatant was analyzed by HPLC/MS/MS for the formation of des-methyldextromethorphane selectively produced by CYP2D6 and 1′hydroxymidazolam or 6p-hydroxytestosterone, selectively produced by CYP3A. IC50 was calculated with Graphpad Prism v.7 comparing the amount of metabolite produced in presence of the test compound with that produced in absence of test item."}},
  "note": "Like-named read-outs stand apart in the source and are kept apart here.",
  "data": [
    {"smiles": "O=S(=O)(N[C@H]1C[C@@H](N2CCOc3cnc4[nH]ccc4c32)C1)C1CN(C2CC2)C1", "note": "[Compound E, 1-Cyclopropyl-N-((cis)-3-(2,3-dihydropyrrolo[3′,2′:5,6]pyrido[3,4-b][1,4]oxazin-1(7H)-yl)cyclobutyl)azetidine-3-sulfonamide]", "values": [
      {"measurement": "IC50", "setting": "JAK3", "value": "> 10000", "unit": "nM"},
      {"measurement": "IC50", "setting": "[1]; TF-1, cellular assay IL6, read-out: Free IC50", "value": 43, "unit": "nM"},
      {"measurement": "IC50", "setting": "[1]; TF-1 cells, IL-6 100 ng/ml, read-out: Cellular Assay: IC50 IL6", "value": 9.9, "unit": "nM"},
      {"measurement": "fraction unbound at 4 h, 5 μM", "setting": "[2]", "value": 0.32},
      {"measurement": "Intr. Clear. minipig heps", "setting": "[3]", "value": 44, "unit": "microL/min/10 6 cells"},
      {"measurement": "IC50", "setting": "CYP2D6", "value": 20000, "unit": "nM"}
    ]}
  ]
}
